In US10265307B2, “Thiazolecarboxamides and pyridinecarboxamide compounds useful as Pim kinase inhibitors” (Incyte Corporation, priority 2013, dated 2019):

Assays:
Type in all cases: biochemical
Pim-2 = Pim-2 (Homo sapiens (Human), UniProt Q9P1W9); assay: Pim-2 kinase assay; conditions: 1 mM ATP; read-out: Pim2 IC50
Protocol: Pim-2 kinase assay-20 μL reactions were run in white 384 well polystyrene plates dotted with 0.8 μL compound/DMSO in the assay buffer (50 mM Tris, pH 7.5, 0.01% Tween-20, 5 mM MgCl2, 0.01% BSA, 5 mM DTT), containing 0.05 μM Fluorescein-labeled CREBtide peptide substrate (Invitrogen PV3508), 1 mM ATP, and 1 nM enzyme (Invitrogen PV3649) for 2 h at 25° C. Reactions were stopped by addition of 10 μL TR-FRET Dilution Buffer (Invitrogen PV3574) with 30 mM EDTA and 1.5 nM LanthaScreen Tb-CREB pSer133 antibody (Invitrogen PV3566). After 30 min. incubation at room temperature, plates were read on a PHERAstar FS plate reader (BMG Labtech).
Although the above in vitro assays are conducted at 1 mM ATP compounds can also be evaluated for potency and in vitro activity against PIM targets utilizing Km conditions, where the concentration of ATP is set to the Km value and the assay is more sensitive to PIM inhibition activity.

Pim-1 = Pim-1 (Homo sapiens (Human), UniProt P11309); assay: Pim-1 kinase assay; conditions: 1 mM ATP; read-out: Pim1 IC50
Protocol: Supplementation of the STOP buffer with beads and stopping the reactions were done under reduced light. Prior to the stopping reactions STOP buffer with beads was pre-incubated for 1 h in the dark at room temperature. After stopping the reactions, plates were incubated for 1 h in the dark at room temperature before reading on a PHERAstar FS plate reader (BMG Labtech) under reduced light.

Pim-3 = Pim-3 (Homo sapiens (Human), UniProt Q86V86); assay: Pim-3 kinase assay; conditions: 1 mM ATP; read-out: Pim3 IC50
Protocol: Pim-1 and Pim-3 kinase assays-20 μL reactions were run in white 384 well polystyrene plates dotted with 0.8 μL compound/DMSO in the assay buffer (50 mM Tris, pH 7.5, 0.01% Tween-20, 5 mM MgCl2, 0.01% BSA, 5 mM DTT), containing 0.05 μM Biotin-labeled BAD peptide substrate (AnaSpec 62269), 1 mM ATP, and […] (Pim-1, Invitrogen PV3503) or […] (Pim-3, Millipore 14-738) enzyme for 1 h at 25° C. Reactions were stopped by addition of 10 μL STOP Buffer (150 mM Tris, pH=7.5, 150 mM NaCl, 75 mM EDTA, 0.01% Tween-20, 0.3% BSA) supplemented with Phospho-Bad (Ser112) Antibody (Cell Signaling 9291) diluted 666-fold, and Streptavidin donor beads (PerkinElmer 6760002) along with Protein-A acceptor beads (PerkinElmer 6760137) at 15 μg/mL each. Supplementation of the STOP buffer with beads and stopping the reactions were done under reduced light. Prior to the stopping reactions STOP buffer with beads was pre-incubated for 1 h in the dark at room temperature. After stopping the reactions, plates were incubated for 1 h in the dark at room temperature before reading on a PHERAstar FS plate reader (BMG Labtech) under reduced light.

Pim-2, sequence (Q9P1W9 whole entry): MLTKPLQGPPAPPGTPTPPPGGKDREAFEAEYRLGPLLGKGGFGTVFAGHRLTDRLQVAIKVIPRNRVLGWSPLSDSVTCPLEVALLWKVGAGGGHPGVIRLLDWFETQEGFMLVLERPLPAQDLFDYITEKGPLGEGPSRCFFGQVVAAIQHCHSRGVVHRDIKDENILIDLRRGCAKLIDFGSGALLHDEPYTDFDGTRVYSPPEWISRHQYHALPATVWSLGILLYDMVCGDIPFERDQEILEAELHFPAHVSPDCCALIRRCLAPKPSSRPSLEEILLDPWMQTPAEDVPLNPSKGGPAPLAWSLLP
Pim-1, sequence (P11309 whole entry): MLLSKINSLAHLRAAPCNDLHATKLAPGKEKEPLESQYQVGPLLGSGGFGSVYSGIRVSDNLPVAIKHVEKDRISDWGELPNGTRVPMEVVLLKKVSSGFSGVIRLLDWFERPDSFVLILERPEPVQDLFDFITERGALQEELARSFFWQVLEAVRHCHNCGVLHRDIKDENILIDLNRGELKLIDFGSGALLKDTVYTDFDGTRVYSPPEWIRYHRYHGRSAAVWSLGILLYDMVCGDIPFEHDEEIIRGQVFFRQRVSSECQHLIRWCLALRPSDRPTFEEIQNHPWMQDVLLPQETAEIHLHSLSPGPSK

| SMILES | IC50 (Pim-2) [nM] | IC50 (Pim-1) [nM] | IC50 (Pim-3) [nM] |
| --- | --- | --- | --- |
| C[C@@H]1C[C@H](N)CN(c2c(NC(=O)c3ccc(F)c(-c4c(F)cc(OC5CCCOC5)cc4F)n3)cnc3c2CCC3O)C1 (single isomer, unassigned) [70 (Diastereoisomer 2)] | ≤ 100 | ≤ 100 | ≤ 100 |
| CC(C)(O)c1cc(F)c(-c2nc(C(=O)Nc3cnc4c(c3N3C[C@@H](N)C[C@@H](C(F)(F)F)C3)CCC4O)ccc2F)c(F)c1 (single isomer, unassigned) [72 (Diastereoisomer 1)] | ≤ 100 | ≤ 100 | ≤ 100 |
| CC(C)(O)c1cc(F)c(-c2nc(C(=O)Nc3cnc4c(c3N3C[C@@H](N)C[C@@H](C(F)(F)F)C3)CCC4O)ccc2F)c(F)c1 (single isomer, unassigned) [72 (Diastereoisomer 2)] | ≤ 100 | ≤ 100 | ≤ 100 |
| Nc1sc(-c2c(F)cccc2F)nc1C(=O)Nc1cnc2c(c1N1CC[C@H](O)[C@@H](N)C1)CCC2 (single isomer, unassigned) [Example 24, 5-Amino-N-{4-[3,4-trans-3-amino-4-hydroxypiperidin-1-yl]-6,7-dihydro-5H-cyclopenta[b]pyridin-3-yl}-2-(2,6-difluorophenyl)-1,3-thiazole-4-carboxamide] | > 2000 | ≤ 100 | ≤ 100 |
| Nc1sc(-c2c(F)cccc2F)nc1C(=O)Nc1cnc2c(c1N1CC[C@@H](O)[C@H](N)C1)CCC2 (single isomer, unassigned) [Example 25, 5-Amino-N-{4-[3,4-trans-3-amino-4-hydroxypiperidin-1-yl]-6,7-dihydro-5H-cyclopenta[b]pyridin-3-yl}-2-(2,6-difluorophenyl)-1,3-thiazole-4-carboxamide] | ≤ 100 | ≤ 100 | ≤ 100 |
| Nc1sc(-c2c(F)cccc2F)nc1C(=O)Nc1cnc2c(c1N1CC[C@@H](O)[C@@H](N)C1)CCC2 (single isomer, unassigned) [Example 26] | > 2000 | ≤ 100 | ≤ 100 |
| Nc1sc(-c2c(F)cccc2F)nc1C(=O)Nc1cnc2c(c1N1CC[C@H](O)[C@H](N)C1)CCC2 (single isomer, unassigned) [Example 27, 5-Amino-N-{4-[3.4-cis-3-amino-4-hydroxypiperidin-1-yl]-6,7-dihydro-5H-cyclopenta[b]pyridin-3-yl}-2-(2,6-difluorophenyl)-1,3-thiazole-4-carboxamide] | ≤ 100 | ≤ 100 | ≤ 100 |
| Nc1sc(-c2c(F)cccc2F)nc1C(=O)Nc1cnc2ccsc2c1N1CC[C@@H](O)[C@H](N)C1 (single isomer, unassigned) [Example 29, 5-Amino-N-{7-[3,4-trans-3-amino-4-hydroxypiperidin-1-yl]thieno[3,2-b]pyridin-6-yl}-2-(2,6-difluorophenyl)-1,3-thiazole-4-carboxamide] | 100 to 1000 | ≤ 100 | ≤ 100 |
| Nc1sc(-c2c(F)cccc2F)nc1C(=O)Nc1cnc2ccsc2c1N1CC[C@H](O)[C@H](N)C1 (single isomer, unassigned) [Example 30, 5-Amino-N-{7-[3.4-cis-3-amino-4-hydroxypiperidin-1-yl]thieno[3,2-b]pyridin-6-yl}-2-(2,6-difluorophenyl)-1,3-thiazole-4-carboxamide] | 100 to 1000 | ≤ 100 | ≤ 100 |
| Nc1sc(-c2c(F)cccc2F)nc1C(=O)Nc1cnc2ccccc2c1N1CCC[C@H](N)C1 [Example 1, 5-Amino-N-{4-[(3S)-3-aminopiperidin-1-yl]quinolin-3-yl}-2-(2,6-difluorophenyl)-1,3-thiazole-4-carboxamide] | 277 | ≤ 100 | ≤ 100 |
| N[C@H]1CCCN(c2c(NC(=O)c3csc(-c4c(F)cccc4F)n3)cnc3ccccc23)C1 [Example 2, N-{4-[(3S)-3-Aminopiperidin-1-yl]quinolin-3-yl}-2-(2,6-difluorophenyl)-1,3-thiazole-4-carboxamide] | > 2000 | > 40 | > 40 |
| Nc1sc(-c2c(F)cccc2F)nc1C(=O)Nc1cnc2sccc2c1N1CCC[C@H](N)C1 [Example 3, 5-Amino-N-{4-[(3S)-3-aminopiperidin-1-yl]thieno[2,3-b]pyridin-5-yl}-2-(2,6-difluorophenyl)-1,3-thiazole-4-carboxamide] | ≤ 100 | ≤ 100 | ≤ 100 |
| N[C@H]1CCCN(c2c(NC(=O)c3csc(-c4c(F)cccc4F)n3)cnc3sccc23)C1 [Example 4, N-{4-[(3S)-3-Aminopiperidin-1-yl]thieno[2,3-b]pyridin-5-yl}-2-(2,6-difluorophenyl)-1,3-thiazole-4-carboxamide] | > 2000 | ≤ 100 | ≤ 100 |
| Nc1sc(-c2c(F)cccc2F)nc1C(=O)Nc1cnc2ccsc2c1N1CCC[C@H](N)C1 [Example 5, 5-Amino-N-{7-[(3S)-3-aminopiperidin-1-yl]thieno[3,2-b]pyridin-6-yl}-2-(2,6-difluorophenyl)-1,3-thiazole-4-carboxamide] | ≤ 100 | ≤ 100 | ≤ 100 |
| N[C@H]1CCCN(c2c(NC(=O)c3csc(-c4c(F)cccc4F)n3)cnc3ccsc23)C1 [Example 6, N-{7-[(3S)-3-Aminopiperidin-1-yl]thieno[3,2-b]pyridin-6-yl}-2-(2,6-difluorophenyl)-1,3-thiazole-4-carboxamide] | > 2000 | ≤ 100 | ≤ 100 |
| Nc1sc(-c2c(F)cccc2F)nc1C(=O)Nc1cnc2[nH]ccc2c1N1CCC[C@H](N)C1 [Example 7, 5-Amino-N-{4-[(3S)-3-aminopiperidin-1-yl]-1H-pyrrolo[2,3-b]pyridin-5-yl}-2-(2,6-difluorophenyl)-1,3-thiazole-4-carboxamide] | ≤ 100 | ≤ 100 | ≤ 100 |
| N[C@H]1CCCN(c2c(NC(=O)c3csc(-c4c(F)cccc4F)n3)cnc3[nH]ccc23)C1 [Example 8, N-{4-[(3S)-3-Aminopiperidin-1-yl]-1H-pyrrolo[2,3-b]pyridin-5-yl}-2-(2,6-difluorophenyl)-1,3-thiazole-4-carboxamide] | > 2000 | ≤ 100 | ≤ 100 |
| Nc1sc(-c2c(F)cccc2F)nc1C(=O)Nc1cnc2c(c1N1CCC[C@H](N)C1)CCO2 [Example 9, 5-Amino-N-{4-[(3S)-3-aminopiperidin-1-yl]-2,3-dihydrofuro[2,3-b]pyridin-5-yl}-2-(2,6-difluorophenyl)-1,3-thiazole-4-carboxamide] | ≤ 100 | ≤ 100 | ≤ 100 |
| N[C@H]1CCCN(c2c(NC(=O)c3csc(-c4c(F)cccc4F)n3)cnc3c2CCO3)C1 [Example 10, N-{4-[(3S)-3-Aminopiperidin-1-yl]-2,3-dihydrofuro[2,3-b]pyridin-5-yl}-2-(2,6-difluorophenyl)-1,3-thiazole-4-carboxamide] | 100 to 1000 | ≤ 100 | ≤ 100 |
| N[C@H]1CCCN(c2c(NC(=O)c3ccc(F)c(-c4c(F)cccc4F)n3)cnc3c2CCO3)C1 [Example 11, N-{4-[(3S)-3-Aminopiperidin-1-yl]-2,3-dihydrofuro[2,3-b]pyridin-5-yl}-6-(2,6-difluorophenyl)-5-fluoropyridine-2-carboxamide] | 100 to 1000 | ≤ 100 | ≤ 100 |
